What was measured:
HBV = assay: Determination of HBV DNA from the supernatants of HepAD38 cells (anti-HBV activity); type: cell-based, hepatitis B virus; settings: Hepatitis B virus, 144 h; HBV DNA in HepAD38 supernatant, day 6, qPCR; read-out: Cell Activity (EC50)
How it was run: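 HepAD38 cells, tetracycline withdrawn to induce HBV, treated with serial half-log compound dilutions; on day 6 HBV DNA purified from filtered supernatant and quantified by real-time PCR against HBV plasmid standards; EC50 from relative copy numbers by non-linear regression, three experiments in triplicate.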

HBV core protein = molecular target: T1, HBV core protein (UniProt P03146); assay: Biochemical capsid assembly assay (fluorescence quenching); set-up: species or system hepatitis B virus; settings: read-out: Assembly Activity (IC50); BODIPY-FL labelled core protein, 300 μM NaCl, read 6 min after start
T1 construct: fused on or other part: BODIPY-FL maleimide label on the C-terminal Cys150
Protocol: Biochemical Capsid Assembly Assay
The screening for assembly effector activity was done based on a fluorescence quenching assay published by Zlotnick et al. (2007). The C-terminal truncated core protein containing 149 amino acids of the N-terminal assembly domain fused to a unique cysteine residue at position 150 and was expressed in E. coli using the pET expression system (Merck Chemicals, Darmstadt). Purification of core dimer protein was performed using a sequence of size exclusion chromatography steps. In brief, the cell pellet from 1 L BL21 (DE3) Rosetta2 culture expressing the coding sequence of core protein cloned NdeI/XhoI into expression plasmid pET21b was treated for 1 h on ice with a native lysis buffer (Qproteome Bacterial Protein Prep Kit; Qiagen, Hilden). After a centrifugation step the supernatant was precipitated during 2 h stirring on ice with 0.23 g/ml of solid ammonium sulfate. Following further centrifugation the resulting pellet was resolved in buffer A (100 mM Tris, pH 7.5; 100 mM NaCl; 2 mM DTT) and was subsequently loaded onto a buffer A equilibrated CaptoCore 700 column (GE HealthCare, Frankfurt). The column flow through containing the assembled HBV capsid was dialyzed against buffer N (50 mM NaHCO3 pH 9.6; 5 mM DTT) before urea was added to a final concentration of 3M to dissociate the capsid into core dimers for 1.5 h on ice. The protein solution was then loaded onto a 1 L Sephacryl S300 column. After elution with buffer N core dimer containing fractions were identified by SDS-PAGE and subsequently pooled and dialyzed against 50 mM HEPES pH 7.5; […]. To improve the assembly capacity of the purified core dimers a second round of assembly and disassembly starting with the addition of 5 M NaCl and including the size exclusion chromatography steps described above was performed. From the last chromatography step core dimer containing fractions were pooled and stored in aliquots at concentrations between 1.5 to 2.0 mg/ml at −80° C.
Immediately before labelling the core protein was reduced by adding freshly prepared DTT in a final concentration of 20 mM. After 40 min incubation on ice storage buffer and DTT was removed using a Sephadex G-25 column (GE HealthCare, Frankfurt) and 50 mM HEPES, pH 7.5. For labelling 1.6 mg/ml core protein was incubated at 4° C. and darkness overnight with BODIPY-FL maleimide (Invitrogen, Karlsruhe) in a final concentration of 1 mM. After labelling the free dye was removed by an additional desalting step using a Sephadex G-25 column. Labelled core dimers were stored in aliquots at 4° C. In the dimeric state the fluorescence signal of the labelled core protein is high and is quenched during the assembly of the core dimers to high molecular capsid structures. The screening assay was performed in black 384 well microtiter plates in a total assay volume of 10 μl using 50 mM HEPES pH 7.5 and 1.0 to 2.0 μM labelled core protein. Each screening compound was added in 8 different concentrations using a 0.5 log-unit serial dilution starting at a final concentration of 100 μM, 31.6 μM or 10 μM, In any case the DMSO concentration over the entire microtiter plate was 0.5%. The assembly reaction was started by the injection of NaCl to a final concentration of […] which induces the assembly process to approximately 25% of the maximal quenched signal. 6 min after starting the reaction the fluorescence signal was measured using a Clariostar plate reader (BMG Labtech, Ortenberg) with an excitation of 477 nm and an emission of 525 nm. As 100% and 0% assembly control HEPES buffer containing 2.5 M and 0 M NaCl was used. Experiments were performed thrice in triplicates. EC50 values were calculated by non-linear regression analysis using the Graph Pad Prism 6 software (GraphPad Software, La Jolla, USA).

[1] = Cell viability assay (AlamarBlue) in HepAD38 cells; settings: human

T1 sequence (P03146 whole entry, looked up, the tested form may be a part): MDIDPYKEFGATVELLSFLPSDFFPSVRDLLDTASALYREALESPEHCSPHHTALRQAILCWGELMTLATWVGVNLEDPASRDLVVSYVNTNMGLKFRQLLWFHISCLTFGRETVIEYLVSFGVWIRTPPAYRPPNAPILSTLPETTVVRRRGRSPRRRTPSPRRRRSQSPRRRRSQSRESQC

Structure (SMILES) | EC50 (HBV) [µM] | IC50 (HBV core protein) [µM] | CC50 at 6 days [1] [µM]
CC1Cc2[nH]nc(-c3cscn3)c2CN1C(=O)c1cc2ccccc2[nH]1 (stereo not drawn) [Example 38, 2-[6-methyl-3-(1,3-thiazol-4-yl)-1H,4H,5H,6H,7H-pyrazolo[4,3-c]pyridine-5-carbonyl]-1H-indole] | < 1 | < 5 | 100
CC(C)(O)C1CN(C(=O)c2n[nH]c3c2CN(C(=O)c2cc4ccccc4[nH]2)CC3)C1 [Example 39, 2-{1-[5-(1H-indole-2-carbonyl)-1H,4H,5H,6H,7H-pyrazolo[4,3-c]pyridine-3-carbonyl]azetidin-3-yl}propan-2-ol] | 1 to 25 | < 100 | > 32
O=C(c1cc2ccccc2[nH]1)N1CCc2[nH]nc(C(=O)N3CC(O)C3)c2C1 [Example 40, 1-[5-(1H-indole-2-carbonyl)-1H,4H,5H,6H,7H-pyrazolo[4,3-c]pyridine-3-carbonyl]azetidin-3-ol] | 1 to 25 | < 5 | > 100
CC(O)CN(C)C(=O)c1n[nH]c2c1CN(C(=O)c1cc3ccccc3[nH]1)CC2 (stereo not drawn) [Example 41, N-(2-hydroxypropyl)-5-(1H-indole-2-carbonyl)-N-methyl-1H,4H,5H,6H,7H-pyrazolo[4,3-]pyridine-3-carboxamide] | < 1 | < 5 | > 100
CC(CO)N(C)C(=O)c1n[nH]c2c1CN(C(=O)c1cc3ccccc3[nH]1)CC2 (stereo not drawn) [Example 42, N-(1-hydroxypropan-2-yl)-5-(1H-indole-2-carbonyl)-N-methyl-1H,4H,5H,6H,7H-pyrazolo[4,3-c]pyridine-3-carboxamide] | 1 to 25 | 5 to 10 | > 100
CN(CC(C)(C)O)C(=O)c1n[nH]c2c1CN(C(=O)c1cc3ccccc3[nH]1)CC2 [Example 43, N-(2-hydroxy-2-methylpropyl)-5-(1H-indole-2-carbonyl)-N-methyl-1H,4H,5H,6H,7H-pyrazolo[4,3-c]pyridine-3-carboxamide] | < 1 | 5 to 10 | > 32
O=C(c1cc2ccccc2[nH]1)N1CCc2[nH]nc(C(=O)N3CC(CCO)C3)c2C1 [Example 44, 2-{1-[5-(1H-indole-2-carbonyl)-1H,4H,5H,6H,7H-pyrazolo[4,3-c]pyridine-3-carbonyl]azetidin-3-yl}ethan-1-ol] | 1 to 25 | < 100 | > 100
O=C(c1cc2ccccc2[nH]1)N1CCc2[nH]nc(C(=O)N3CC(CO)C3)c2C1 [Example 45, {1-[5-(1H-indole-2-carbonyl)-1H,4H,5H,6H,7H-pyrazolo[4,3-c]pyridine-3-carbonyl]azetidin-3-yl}methanol] | 1 to 25 | < 100 | > 100
O=C(c1cc2c(Cl)cc(F)cc2[nH]1)N1CCc2[nH]nc(-c3cscn3)c2C1 [Example 46, 4-chloro-6-fluoro-2-[3-(1,3-thiazol-4-yl)-1H,4H,5H,6H,7H-pyrazolo[4,3-c]pyridine-5-carbonyl]-1H-indole] | < 1 | < 5 | > 100
O=C(c1cc2ccccc2[nH]1)N1CCc2[nH]nc(-c3cscn3)c2C1 [Example 47, 2-[3-(1,3-thiazol-4-yl)-1H,4H,5H,6H,7H-pyrazolo[4,3-c]pyridine-5-carbonyl]-1H-indole] | < 1 | < 5 | > 100
CC(C)[C@H](N)C(=O)OCCN(C)C(=O)c1n[nH]c2c1CN(C(=O)c1cc3ccccc3[nH]1)CC2 [Example 48, 2-{1-[5-(1H-indole-2-carbonyl)-1H,4H,5H,6H,7H-pyrazolo[4,3-c]pyridin-3-yl]-N-methylformamido}ethyl (2S)-2-amino-3-methylbutanoate] | < 1 | < 5 | > 32
CC(O)c1cc(F)cc2[nH]c(C(=O)N3CCc4[nH]nc(C(=O)N(C)CCO)c4C3)cc12 (stereo not drawn) [Example 49, 5-[6-fluoro-4-(1-hydroxyethyl)-1H-indole-2-carbonyl]-N-(2-hydroxyethyl)-N-methyl-1H,4H,5H,6H,7H-pyrazolo[4,3-c]pyridine-3-carboxamide] | < 100 | < 100 | > 100
